pKi: −log10 of the molar value.
Key:
Shp2 PTP [1] = target: T1, Shp2 PTP (Homo sapiens, UniProt Q06124); assay: Shp2 PTP inhibition assay; type: biochemical; settings: for Inhibition of Shp2 PTP activity at the highest concentration tested: 300 µM
T1 sequence (Q06124 1-593): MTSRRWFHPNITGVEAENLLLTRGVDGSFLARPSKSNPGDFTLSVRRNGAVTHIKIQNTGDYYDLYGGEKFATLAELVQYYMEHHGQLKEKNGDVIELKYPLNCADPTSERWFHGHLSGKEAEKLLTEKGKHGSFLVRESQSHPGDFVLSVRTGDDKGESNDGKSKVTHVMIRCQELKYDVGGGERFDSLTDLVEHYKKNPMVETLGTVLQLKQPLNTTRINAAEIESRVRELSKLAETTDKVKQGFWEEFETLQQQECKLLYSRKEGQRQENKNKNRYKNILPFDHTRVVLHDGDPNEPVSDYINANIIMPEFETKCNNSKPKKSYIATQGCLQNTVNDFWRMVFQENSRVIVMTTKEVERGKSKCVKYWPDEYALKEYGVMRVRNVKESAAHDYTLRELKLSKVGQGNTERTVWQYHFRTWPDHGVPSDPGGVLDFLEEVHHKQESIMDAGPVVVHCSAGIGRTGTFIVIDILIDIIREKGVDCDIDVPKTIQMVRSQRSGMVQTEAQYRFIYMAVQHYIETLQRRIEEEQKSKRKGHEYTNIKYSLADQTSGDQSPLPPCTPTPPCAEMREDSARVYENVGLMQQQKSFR

Shp2 = target: T2, Shp2 (Homo sapiens, UniProt Q06124); assay: Surface plasmon resonance; type: binding; settings: SPR
T2 sequence (Q06124 1-593): T1 sequence (Q06124 1-593)

Shp2 PTP [2] = target: T1, Shp2 PTP; assay: Enzyme kinetic assay using DiFMUP as the substrate; type: biochemical

## C[C@]12CC[C@@H]3c4ccc(O)cc4CC[C@H]3[C@@H]1CC[C@@H]2O [Estradiol, estradiol]
Shp2 PTP [1]
  Inhibition of Shp2 PTP activity at the highest concentration tested: did not inhibit

## C[C@]12CC[C@@H]3c4ccc(OC(=O)N(CCCl)CCCl)cc4CC[C@H]3[C@@H]1CC[C@@H]2OP(=O)(O)O [Estramustine phosphate, estramustine phosphate]
Shp2
  association rate constant ka: 2200 M⁻¹ s⁻¹
Shp2 PTP [2]
  pKi: 4.64
Shp2 PTP [2]; DiFMUP substrate
  Inhibition kinetics (best fit): mixed inhibition kinetics

## C[C@]12CC[C@@H]3c4ccc(OC(=O)N(CCCl)CCCl)cc4CC[C@H]3[C@@H]1CC[C@@H]2O [Estramustine, estramustine]
Shp2 PTP [1]
  Inhibition of Shp2 PTP activity at the highest concentration tested: did not inhibit

## CC1=C(O)C(=O)C=C2C1=CC=C1[C@@]2(C)CC[C@@]2(C)[C@@H]3C[C@@H](C)C(=O)C[C@]3(C)CC[C@]12C [Maitenin]
Shp2 PTP [1]
  Fold less potent than celastrol in Shp2 inhibition: 18 fold

## COc1ccc2c(c1)CC[C@@H]1[C@@H]2CC[C@@]2(C)[C@H]1CC[C@@]21CCNP(=O)(N(CCCl)CCCl)O1 (stereo partly shown) [NSC233064]
Shp2 PTP [1]
  Inhibition of Shp2 PTP activity at the highest concentration tested: did not inhibit
